From patent US10682360B2, “Antimicrobial formulations and applications thereof” (priority 2014, dated 2020) come the findings set out here.

Some results are limits rather than exact numbers.

The subject of assay [1] is Staphylococcus aureus 33592 (MRSA). In words: ASTM E2315 suspension time-kill procedure. The format is cell-based. As to conditions: contact time 2 hours; for CFU/mL / % Reduction / Log10 reduction: S. aureus 33592; for % Reduction / Log10 reduction: vs time zero control. As for the experimental part: (§1) Efficacy of these substances, alone and in combination, was tested against two strains of bacteria using the ASTM E2315 test method.
(2) Staphylococcus aureus 33592 (MRSA): This is a Gram-positive, coccus-shaped aerobe that is resistant to methicillin, a penicillin derivative. Rapid reproduction and resistance to antibiotics can make S. aureus infections particularly difficult to treat. MRSA bacteria are resistant to drying and can survive on surfaces and fabrics for an extended period of time.
(§2) ASTM E2315 is a quantitative test method designed to assess changes in the populations of a microorganism in an antimicrobial liquid suspension. The method can be conducted using contact times ranging from 10 seconds to 24 hours. The test method uses non-antimicrobial agents as controls to establish baselines for microbial reductions.
(§3) Test microorganisms were prepared in liquid culture medium. Suspensions of test microorganisms were standardized as needed by dilution in a buffered saline solution. Test and control substances were dispensed in identical volumes to sterile vessels.
(§4) Independently, test and control substances were inoculated with each test microorganism, then mixed and incubated. Control substances were immediately harvested and used to represent the concentration present at the start of the test.
(§5) At the conclusion of the contact time, a volume of liquid test solution was harvested and chemically neutralized. Test microorganisms were spun down and the cell pellet was resuspended in phosphate buffered saline (PBS) prior to inoculation of the test systems. 10 mL volumes of Dey/Engley neutralizer broth supplemented with 5% magnesium chloride and 35% polysorbate 80 were used for chemical neutralization. After chemical neutralization, test systems were filtered using a filtration manifold to recover surviving microorganisms.
(§6) Dilutions of neutralized test solution were assayed using appropriate growth media to determine surviving microorganism levels at each respective contact time. Reductions of microorganisms were calculated by comparing initial microbial concentrations to final microbial concentrations. The limit of detection for the assay was 10 CFU/mL.
(§7) Percent reduction of bacterial population was calculated according to the following equation, where A=number of viable test microorganisms in the test substance after the contact time and B=number of viable test microorganisms in the control substance immediately after inoculation. Log10 reduction was also calculated.
(§8) The experimental procedure of Example 1 was followed with the exception of substitutions of some antibiotics. Cefuroxime (a second generation cephalosporin) and/or ceftazidime (a third generation cephalosporin active against P. aeruginosa) were used to replace cefazolin.

The test system of assay [2] is Pseudomonas aeruginosa 9027. Nature of the assay: ASTM E2315 suspension time-kill procedure. In kind it is cell-based. The conditions noted are these: P. aeruginosa 9027, contact time 2 hours; for % Reduction / Log10 reduction: vs time zero control. Here is the method: as §1
(1) Pseudomonas aeruginosa 9027: This is a Gram-negative, rod-shaped microorganism with a single flagellum. P. aeruginosa grows optimally under aerobic conditions but can use various electron acceptors to respire anaerobically as needed. This organism is an opportunistic pathogen with the ability to form resilient biofilms in human tissues under anaerobic conditions.
as §2, §3, §4, §5, §6, §7, §8

[3] abbreviates: Example 2, time zero control 3.35 × 10^7 CFU/mL.

`Cc1nnc(SCC2=C(C(=O)O)N3C(=O)[C@@H](NC(=O)Cn4cnnn4)[C@H]3SC2)s1` [Test 1, Cefazolin]: the CFU/mL in assay [1] (Example 1, time zero control 2.85 × 10^6 CFU/mL, ambient 25° C.) was 1.44 × 10^5 CFU/mL. Moreover, in assay [1] (Example 1), the “% Reduction” value was 94.96% and the Log10 reduction was 1.30.
As to `CO/N=C(\C(=O)N[C@@H]1C(=O)N2C(C(=O)O)=C(COC(N)=O)CS[C@H]12)c1ccco1` [Test 8, Cefuroxime], in assay [1] (Example 2, time zero control 1.75 × 10^6 CFU/mL), the CFU/mL is given as 1.50 × 10^6 CFU/mL. In assay [1] (Example 2), the “% Reduction” value is reported as 14.29% and the Log10 reduction came to 0.07. Also, the “antibacterial effect / interaction of the antibiotics, in words” value (“antibacterial effect / interaction” for short) in assay [1] (S. aureus 33592 (MRSA)) was “less activity against MRSA than the first generation cephalosporin, cefazolin”.
Regarding `CO/N=C(\C(=O)N[C@@H]1C(=O)N2C(C(=O)O)=C(COC(N)=O)CS[C@H]12)c1ccco1` [Test 12, Cefuroxime], the CFU/mL in assay [2] (setting [3]) is recorded as 2.00 × 10^5 CFU/mL. In assay [2] (Example 2), the “% Reduction” value came to 99.44% and the Log10 reduction was 2.25. Moreover, the “antibacterial effect / interaction” value in assay [2] was “bactericidal”.
In the case of Polymyxin B [Test 5], the CFU/mL in assay [2] (Example 1, time zero control 1.80 × 10^6 CFU/mL, limit of detection 10 CFU/mL) is <1.00 × 10^1 CFU/mL. Further, in assay [2] (Example 1), the “% Reduction” value was greater than 99.9996% and the Log10 reduction is reported as greater than 5.45. The “antibacterial effect / interaction” value in assay [2] is on record as “essentially complete elimination”.
Polymyxin B [Test 11]: the CFU/mL in assay [2] (setting [3]) is 1.00 × 10^3 CFU/mL. In addition, in assay [2] (Example 2), the “% Reduction” value is recorded as 99.997% and the Log10 reduction is given as 4.55.
